Measurements from ChEMBL document CHEMBL5360647, “A Systematic Survey of Reversibly Covalent Dipeptidyl Inhibitors of the SARS-CoV-2 Main Protease” (J Med Chem, 2023).

Tested on: SARS-CoV-2
Assay: Antiviral activity against SARS-CoV-2 USA-WA1/2020 infected in Vero E6 cells assessed as reduction in viral plaque formation incubated for 3 days by plaque reduction neutralization assay
Assay type: functional, organism-based
Conditions: Severe acute respiratory syndrome coronavirus 2, USA-WA1/2020, Vero C1008, 72 h

Row | SMILES | EC50 [µM]
1 | O=C[C@H](C[C@@H]1CCNC1=O)NC(=O)C1CC2(CCCC2)CN1C(=O)OCc1ccccc1 (stereo partly drawn) | 0.37
2 | CC1(C)[C@@H]2[C@@H](C(=O)N[C@H](C=O)C[C@@H]3CCNC3=O)N(C(=O)OCc3ccccc3)C[C@@H]21 | 1.5
3 | O=C[C@H](C[C@@H]1CCNC1=O)NC(=O)C1CC2(CCCCC2)CN1C(=O)OCc1ccccc1 (stereo partly drawn) | 0.37
